# Results reported in article PMC7433010, “Exploration of multi‐target effects of 3‐benzoyl‐5‐hydroxychromen‐2‐one in Alzheimer’s disease cell and mouse models” (Aging Cell, 2020).
# How the values were obtained:
# NRF2 = assay: Western blot of NRF2 in ∆K280 TauRD‐DsRed SH‐SY5Y cells; type: cell-based, human; conditions: 1 µM
# Method: (§1) To knock down CREB expression in ∆K280 TauRD-DsRed SH-SY5Y cells, lentiviral short hairpin RNA (shRNA) targeting CREB (TRCN0000226466), NRF2 (TRCN0000007558), and a negative control scrambled (TRC2.Void) were obtained from National RNAi Core Facility, IMB/GRC, Academia Sinica, Taipei, Taiwan. On day 1, cells were plated on 6-well plates (for protein analysis) or 24-well plates (for neurite outgrowth analysis) in the presence of retinoic acid as described. On the second day, the cells were infected with lentivirus (multiplicity of infection: 3) in medium with polybrene (8 µg/mL; Sigma-Aldrich). On day 3, the culture medium was changed and the cells were pretreated with LM-031 (1 µM) for 8 h, followed by induction of ∆K280 TauRD-DsRed expression. On day 9, the cells were collected for NRF2, CREB, pCREB, and cleaved CASP3 protein analysis or analyzed for neurite outgrowth as described.
# (§2) Total proteins from ∆K280 TauRD-DsRed SH-SY5Y cells were obtained using a RIPA buffer containing 50 mM Tris-HCl (pH8.0), 150 mM NaCl, 2 mM EDTA (pH8.0), 50 mM NaF, 0.1% SDS, 0.5% sodium deoxycholate, 1% NP40, and a protease inhibitor cocktail (Sigma-Aldrich). After sonication and sitting on ice for 20 min, the lysates were centrifuged at 14,000 × g for 30 min at 4°C. Protein concentrations were determined using a protein assay kit (Bio-Rad, Hercules, CA, USA), with albumin as a standard. Total proteins (20 µg) were electrophoresed on 10% or 12% SDS-polyacrylamide gel and transferred onto polyvinylidene difluoride (PVDF) membranes (Sigma-Aldrich) through reverse electrophoresis. […] Subsequently, immune complexes were detected using a horseradish peroxidase-conjugated goat anti-mouse or goat anti-rabbit IgG antibody (1:5000; GeneTex, Irvive, CA, USA) and a chemiluminescent substrate (Millipore).
# [1] = system: STZ‐induced hyperglycemic 3 × Tg‐AD mice; assay: Y‐maze task in STZ‐treated 3 × Tg‐AD mice; type: in vivo, mouse; conditions: day 26; 40 mg/kg i.p.; STZ 53%, – STZ 63%
# Method: Mice harboring APPSwe, PS1M146V, and […] transgenes (3×Tg-AD) (Oddo et al., 2003) were purchased from the Jackson Laboratory (004807; Bar Harbor, ME, USA). Six-month-old male homozygous 3×Tg-AD mice were group housed at 20–25°C and 60% relative humidity under a daily 12-h light/12-h dark cycle, with assess to food and water ad libitum. Mice were randomly divided into 3 groups: – streptozocin (STZ), STZ, and STZ/LM-031 (n = 10 per group). STZ-induced hyperglycemia was used to accelerate the development of AD phenotype (Chen et al., 2014). […] Mouse body weight was measured and blood glucose level was measured on days 1, 8, 15, 22, and 29 using a blood glucose meter (Bioland Technology, Taipei, Taiwan). […]
# A Y-maze composed of three equally spaced arms (40 cm long, 30 cm high, and 15 cm wide) was used to assess spontaneous alternation behavior. On day 26, each mouse was placed in one of the arm compartments and was allowed to move freely for 8 min; the number of entries and the sequence of arms entered were recorded. Spatial working memory was assessed through the spontaneous alternation performances of a Y-maze exploration as described (Maurice et al., 1994). […] The percent of spontaneous alternation behavior was calculated as the ratio of actual alternation to possible alternations (total arm entries – 2) × 100.
# pCREB = assay: Western blot of pCREB in hippocampus of STZ‐treated 3 × Tg‐AD mice; type: in vivo, mouse; conditions: STZ 68%, – STZ 100%
# Method: In addition, isolated hippocampal and cortex tissues from transgenic mice (as described in Animal studies) were homogenized and extracted proteins (10 µg) were separated and blotted. After being blocked, the membranes were probed with antibody against mouse NRF2 (1:500; Sigma-Aldrich), CREB (1:500; Millipore), pCREB (S133) (1:1000; Millipore), or GAPDH (1:1000; MDBio), and the immune complexes detected as described above.
# Mice harboring APPSwe, PS1M146V, and […] transgenes (3×Tg-AD) (Oddo et al., 2003) were purchased from the Jackson Laboratory (004807; Bar Harbor, ME, USA). Six-month-old male homozygous 3×Tg-AD mice were group housed at 20–25°C and 60% relative humidity under a daily 12-h light/12-h dark cycle, with assess to food and water ad libitum. Mice were randomly divided into 3 groups: – streptozocin (STZ), STZ, and STZ/LM-031 (n = 10 per group). STZ-induced hyperglycemia was used to accelerate the development of AD phenotype (Chen et al., 2014). Briefly, the mice were fasted for 12 h each day prior to intraperitoneal (i.p.) injection of STZ ([…]; Sigma-Aldrich) or vehicle (0.1 M sodium citrate pH4.5) for 4 times (days 2, 3, 9, and 10) (Chen et al., 2019). Mouse body weight was measured and blood glucose level was measured on days 1, 8, 15, 22, and 29 using a blood glucose meter (Bioland Technology, Taipei, Taiwan). […]
# CREB = assay: Western blot of CREB in ∆K280 TauRD‐DsRed SH‐SY5Y cells; type: cell-based, human; conditions: 1 µM; induced untreated 82%, uninduced 100%
# Method: as §1, with “On day 3, the culture medium was changed and the cells were pretreated with LM-031 (1 µM) for 8 h, followed by induction of ∆K280 TauRD-DsRed expression.” left out
# as §2, with “After sonication and sitting on ice for 20 min, the lysates were centrifuged at 14,000 × g for 30 min at 4°C.” left out, “standard.” for “standard. Total proteins (20 µg) were electrophoresed on 10% or 12% SDS-polyacrylamide gel and transferred onto polyvinylidene difluoride (PVDF) membranes (Sigma-Aldrich) through reverse electrophoresis.”
# BCL2 = assay: Western blot of BCL2 in ∆K280 TauRD‐DsRed SH‐SY5Y cells; type: cell-based, human; conditions: 1 µM; induced untreated 83%, uninduced 100%
# Method: as §2
smiles,measurement,setting,value
"O=C(c1ccccc1)c1cc2c(O)cccc2oc1=O [LM‐031, 3‐benzoyl‐5‐hydroxychromen‐2‐one]",NRF2 protein level,"NRF2; induced untreated 75%, uninduced 100%",109%
same,NRF2 level,"NRF2; NRF2‐specific shRNA‐infected cells, untreated 74%",98%
same,NRF2 level,"NRF2; scrambled shRNA‐infected cells, untreated 70%, uninduced 100%",105%
same,Y‐maze alternation rate,[1],72%
same,pCREB level in hippocampus,pCREB,110%
same,CREB protein level,CREB,122%
same,BCL2 protein level,BCL2,106%
